Source: patent publication US11840528B2 (Hoffmann-La Roche Inc., priority 2018, dated 2023)
pKi: −log10 of the molar value.

Assays:
[1] = biological target: T1, h-GABA-A α5β3γ2 (Homo sapiens, UniProt P18507+P31644); test: [3H]flumazenil competition binding assay, membranes of HEK293 cells expressing GABAA receptors; settings: displacement of [3H]-Flumazenil 0.5 nM, HEK293 cells expressing human receptors, mean of two determinations; Table 1
Experimental: The affinity of compounds at GABAA receptor subtypes was measured by competition for [3H]flumazenil (85 Ci/mmol; Roche) binding to HEK293 cells expressing rat (stably transfected) or human (transiently transfected) receptors of composition α1β3γ2, α2β3γ2, α3β3γ2 and α5β3γ2.
Cell pellets were suspended in Krebs-tris buffer (4.8 mM KCl, 1.2 mM CaCl2), 1.2 mM MgCl2, 120 mM NaCl, 15 mM Tris; pH 7.5; binding assay buffer), homogenized by polytron for ca. 20 sec on ice and centrifuged for 60 min at 4° C. (50000 g; Sorvall, rotor: SM24=20000 rpm). The cell pellets were resuspended in Krebs-tris buffer and homogenized by polytron for ca. 15 sec on ice. Protein was measured (Bradford method, Bio-Rad) and aliquots of 1 mL were prepared and stored at −80° C.
Assays were incubated to equilibrium for 1 hour at 4° C. and harvested onto GF/C uni-filters (Packard) by filtration using a Packard harvester and washing with ice-cold wash buffer (50 mM Tris; pH 7.5). After drying, filter-retained radioactivity was detected by liquid scintillation counting. Ki values were calculated using Excel-Fit (Microsoft) and are the means of two determinations.

[2] = biological target: T1, h-GABA-A α5β3γ2; test: Two-electrode voltage clamp electrophysiology in Xenopus laevis oocytes expressing GABAA receptors, modulation of GABA EC20 current; format: cell-based; design: host or cells: Xenopus laevis oocytes micro-injected with RNA transcripts of the subunits; settings: Table 1; for Efficacy (GABA) %: % modulation of GABA EC20 = 100*(Fold increase-1); for Fold increase h-GABA-A α5β3γ2 oocyte: test compound at approx. 30 fold its Ki, GABA at EC20
Experimental: Xenopus laevis oocytes at maturation stages V-VI were used for the expression of cloned mRNA encoding GABAA receptor subunits. Oocytes ready for RNA micro-injection were bought from Ecocyte, Castrop-Rauxel, Germany and stored in modified Barth's medium (composition in mM: NaCl 88, KCl 1, NaHCO32.4, HEPES 10, MgSO4 0.82, CaNO3 0.33, CaCl2 0.33, pH=7.5) at 20° C. until the experiment.
Oocytes were plated in 96-well plates to be used in an automated instrument (Robo-ocyte, MultiChannelSystems, Reutlingen, Germany) for microinjection and electrophysiological recordings. Approximately 50 nl of an aqueous solution containing the RNA transcripts for the subunits of the desired GABAA receptor was injected into each oocyte. RNA concentrations ranged between 0.3 and 16 ng/μl/subunit and were adjusted in pilot experiments to obtain GABA responses of a suitable size and a maximal effect of the reference modulator, Beta-CCM (β-CCM), a betacarboline negative allosteric modulator (NAM) at the GABAA receptor benzodiazepine (BZD) binding site or Midazolam, a benzodiazepine positive allosteric modulator (PAM) at the GABAA receptor benzodiazepine (BZD) binding site. The concentration of the γ2 subunit encoding RNA usually was 5- to 10-fold higher than the RNAs encoding the other subunits. Oocytes were kept in modified Barth's medium (composition in mM: NaCl 88, KCl 1, NaHCO3 4, HEPES 10, MgSO4 0.82, CaNO3 0.33, CaCl2) 0.33, pH=7.5) at 20° C. until the experiment.
Electrophysiological experiments were performed on days 3 to 5 after the micro-injection of mRNA. During the experiment the oocytes were constantly superfused by a solution containing (in mM) NaCl 90, KCl 1, HEPES 5, MgCl2 1, CaCl2) 1 (pH 7.4). Oocytes were impaled by two glass microelectrodes (resistance: 0.4 MΩ) which were filled with a solution containing KCl 1M+K-acetate 1.5 M and voltage-clamped to −80 mV. The recordings were performed at room temperature using the Roboocyte two-electrode voltage clamp system (Multichannelsystem). After an initial equilibration period of 1.5 min GABA was added for 1.5 min at a concentration evoking approximately 20% of a maximal current response (EC20). After another rest interval of 2.5 min GABA was again added evoking a response of similar amplitude and shape. 0.5 min after the onset of this second GABA application the test compound, at a concentration corresponding to approximatively 30 fold its Ki, was added while GABA was still present. Current traces were recorded at a digitization rate of 10 Hz during and shortly before and after the GABA application.
Each compound and concentration was tested on at least 3 oocytes. Different oocytes were used for different compound concentrations. β-CCM, a negative allosteric modulator, or Midazolam, a positive allosteric modulators, were tested on a few (3-6) oocytes on each 96-well plate for a positive control at a maximally effective. β-CCM inhibited the GABA-evoked current by approximatively 50% (Fold increase ˜0.5), while Midazolam potentiated the GABA-induced current by approximatively 150% (Fold increase ˜2.5).
For the analysis, the digitized current traces of the first and second GABA response were superimposed and, if necessary, rescaled to equal maximal amplitudes. The ratio between the two responses during the time interval of test compound application was calculated point by point. The extremum of the resulting “ratio trace” was taken as the efficacy (“Fold increase”) of the compound expressed as “% modulation of GABA EC20” (100*(Fold increase-1)).

SMILES | pKi [1] | Efficacy (GABA) % [2] [%] | Fold increase h-GABA-A α5β3γ2 oocyte [2]
Cc1ccc(-c2noc(C)c2Cn2ncc(N3CC(Oc4ccccn4)C3)cc2=O)cn1 [Example 124, 2-[[5-methyl-3-(6-methyl-3-pyridyl)isoxazol-4-yl]methyl]-5-[3-(2-pyridyloxy)azetidin-1-yl]pyridazin-3-one] | 7.92 | 148 | 2.48
Cc1ccc(-c2noc(C)c2Cn2ncc(N(C)C3COC3)cc2=O)cn1 [Example 65, 5-(methyl(oxetan-3-yl)amino)-2-((5-methyl-3-(6-methylpyridin-3-yl)isoxazol-4-yl)methyl)pyridazin-3(2H)-one] | 8.33 | 142 | 2.42
Cc1ccc(-c2noc(CF)c2Cn2ncc(N3CC4(CCCO4)C3)cc2=O)nn1 [Example 295, 2-((5-(fluoromethyl)-3-(6-methylpyridazin-3-yl)isoxazol-4-yl)methyl)-5-(5-oxa-2-azaspiro[3.4]octan-2-yl)pyridazin-3(2H)-one] | 7.80 | 74 | 1.74
Cc1onc(-c2ccc(Cl)nc2)c1Cn1ncc(N2CCC3(CC2)CC(F)CCO3)cc1=O (single isomer, unassigned) [Example 331] | 7.75 | 159 | 2.59
CC(=O)N(C)[C@@H]1CCN(c2cnn(Cc3c(-c4ccc(C)nc4)noc3C)c(=O)c2)C1 [Example 2, N-methyl-N-[(3R)-1-[1-[[5-methyl-3-(6-methyl-3-pyridyl)isoxazol-4-yl]methyl]-6-oxo-pyridazin-4-yl]pyrrolidin-3-yl]acetamide] | 7.58 | 155 | 2.55
Cc1onc(-c2ccc(Cl)nc2)c1Cn1ncc(N2CCC3(CCCCO3)CC2)cc1=O [Example 333, 2-[[3-(6-chloro-3-pyridyl)-5-methyl-isoxazol-4-yl]methyl]-5-(1-oxa-9-azaspiro[5.5]undecan-9-yl)pyridazin-3-one] | 7.38 | 190 | 2.9
Cc1ccc(-c2noc(C)c2Cn2ncc(N3CCC(C#N)CC3)cc2=O)cn1 [Example 34, 1-[1-[[5-methyl-3-(6-methyl-3-pyridyl)isoxazol-4-yl]methyl]-6-oxo-pyridazin-4-yl]piperidine-4-carbonitrile] | 8.37 | 222 | 3.22
Cc1onc(-c2ccc(Cl)nc2)c1Cn1ncc(N2C[C@@H](O)[C@H]2C)cc1=O [Example 289, 2-((3-(6-chloropyridin-3-yl)-5-methylisoxazol-4-yl)methyl)-5-((2R,3R)-3-hydroxy-2-methylazetidin-1-yl)pyridazin-3(2H)-one] | 8.66 | 68 | 1.68
Cc1ccc(-c2noc(C)c2Cn2ncc(N3CCC3)cc2=O)cn1 [Example 97, 5-(azetidin-1-yl)-2-[[5-methyl-3-(6-methyl-3-pyridyl)isoxazol-4-yl]methyl]pyridazin-3-one] | 8.07 | 106 | 2.06

Second part, the compound after the results:

pKi [1] | Efficacy (GABA) % [2] [%] | Fold increase h-GABA-A α5β3γ2 oocyte [2] | SMILES
8.11 | 56 | 1.56 | CCOC1CN(c2cnn(Cc3c(-c4ccc(Cl)cc4)noc3C)c(=O)c2)C1 [Example 161, 2-[[3-(4-chlorophenyl)-5-methyl-isoxazol-4-yl]methyl]-5-(3-ethoxyazetidin-1-yl)pyridazin-3-one]
7.52 | 126 | 2.26 | Cc1ccc(-c2noc(C)c2Cn2ncc(N3CC4(CC(F)CCO4)C3)cc2=O)cn1 (single isomer, unassigned) [Example 273]
7.48 | 103 | 2.03 | Cc1ccc(-c2noc(C)c2Cn2ncc(NCC3CCOCC3)cc2=O)cn1 [Example 88, 2-((5-methyl-3-(6-methylpyridin-3-yl)isoxazol-4-yl)methyl)-5-(((tetrahydro-2H-pyran-4-yl)methyl)amino)pyridazin-3(2H)-one]
7.38 | 118 | 2.18 | COC1CN(c2cnn(Cc3c(-c4ccc(Cl)nc4)noc3C)c(=O)c2)C1 [Example 212, 2-((3-(6-chloropyridin-3-yl)-5-methylisoxazol-4-yl)methyl)-5-(3-methoxyazetidin-1-yl)pyridazin-3(2H)-one]
7.46 | 147 | 2.47 | Cc1ccc(-c2noc(C)c2Cn2ncc(N3CC(OCC4CC4)C3)cc2=O)cn1 [Example 111, 5-[3-(cyclopropylmethoxy)azetidin-1-yl]-2-[[5-methyl-3-(6-methyl-3-pyridyl)isoxazol-4-yl]methyl]pyridazin-3-one]
8.74 | 131 | 2.31 | CCO[C@H]1CN(c2cnn(Cc3c(-c4ccc(C)nc4)noc3C)c(=O)c2)[C@H]1C [Example 198, 5-[(2S,3S)-3-ethoxy-2-methyl-azetidin-1-yl]-2-[[5-methyl-3-(6-methyl-3-pyridyl)isoxazol-4-yl]methyl]pyridazin-3-one]
7.91 | 85 | 1.85 | Cc1onc(-c2ccc(Cl)nc2)c1Cn1ncc(N2CC3(C2)CC(F)(F)CO3)cc1=O [Example 217, 2-((3-(6-chloropyridin-3-yl)-5-methylisoxazol-4-yl)methyl)-5-(7,7-difluoro-5-oxa-2-azaspiro[3.4]octan-2-yl)pyridazin-3(2H)-one]
7.85 | 100 | 2 | Cc1ccc(-c2noc(C)c2Cn2ncc(N3CCC(C(=O)NC4CC4)CC3)cc2=O)cn1 [Example 27, N-cyclopropyl-1-[1-[[5-methyl-3-(6-methyl-3-pyridyl)isoxazol-4-yl]methyl]-6-oxo-pyridazin-4-yl]piperidine-4-carboxamide]
7.88 | 86 | 1.86 | Cc1ncc(-c2noc(C)c2Cn2ncc(N(C)C)cc2=O)cc1F [Example 102, 5-(dimethylamino)-2-[[3-(5-fluoro-6-methyl-3-pyridyl)-5-methyl-isoxazol-4-yl]methyl]pyridazin-3-one]
7.78 | 184 | 2.84 | CCOC1CN(c2cnn(Cc3c(-c4ccc(C)nc4)noc3C)c(=O)c2Cl)C1 [Example 268, 4-chloro-5-(3-ethoxyazetidin-1-yl)-2-((5-methyl-3-(6-methylpyridin-3-yl)isoxazol-4-yl)methyl)pyridazin-3(2H)-one]
